The record followed here is patent US12492185B2, “Benzimidazole derivatives and their uses” (Teijin Pharma Limited, priority 2019, dated 2025).

Each structure is given as a SMILES string.

The experiment concerns the target T1, human TRPC6 (Homo sapiens, UniProt Q9Y210).
T1 construct: expressed in transfected cells
T1 sequence (Q9Y210 1-931): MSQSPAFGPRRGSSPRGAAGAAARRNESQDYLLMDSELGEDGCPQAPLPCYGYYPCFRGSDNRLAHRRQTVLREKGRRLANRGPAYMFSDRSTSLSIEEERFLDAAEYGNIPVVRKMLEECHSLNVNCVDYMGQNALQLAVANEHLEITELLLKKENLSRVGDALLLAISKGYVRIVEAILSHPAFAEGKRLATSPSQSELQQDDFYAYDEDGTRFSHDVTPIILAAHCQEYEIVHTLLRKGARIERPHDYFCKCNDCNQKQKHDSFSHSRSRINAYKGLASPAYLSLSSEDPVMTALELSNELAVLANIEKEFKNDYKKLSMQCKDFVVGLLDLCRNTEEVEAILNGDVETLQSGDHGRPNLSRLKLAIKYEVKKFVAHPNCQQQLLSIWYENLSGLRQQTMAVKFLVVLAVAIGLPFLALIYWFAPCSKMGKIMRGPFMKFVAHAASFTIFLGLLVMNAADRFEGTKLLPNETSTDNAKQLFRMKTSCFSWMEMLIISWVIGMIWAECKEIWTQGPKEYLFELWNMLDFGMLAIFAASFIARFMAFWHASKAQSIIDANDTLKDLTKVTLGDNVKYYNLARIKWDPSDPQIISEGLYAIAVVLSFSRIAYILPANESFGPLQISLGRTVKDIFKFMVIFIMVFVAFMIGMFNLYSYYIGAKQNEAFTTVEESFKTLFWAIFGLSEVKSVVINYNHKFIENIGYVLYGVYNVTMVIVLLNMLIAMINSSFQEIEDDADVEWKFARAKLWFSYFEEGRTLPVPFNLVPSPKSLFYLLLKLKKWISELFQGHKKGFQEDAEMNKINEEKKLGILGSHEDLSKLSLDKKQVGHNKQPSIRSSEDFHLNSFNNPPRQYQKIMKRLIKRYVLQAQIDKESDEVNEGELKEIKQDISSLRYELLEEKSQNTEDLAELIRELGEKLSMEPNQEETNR
The experiment is described as follows: TRPC6 Calcium Flux Assay. Type of experiment: cell-based. The note with it: inhibition of OAG-triggered calcium influx in HEK293 cells stably transfected with human TRPC6; FLIPR; 25 min compound preincubation; 50 uM OAG; read-out: hTRPC6 Potency. Here is the method:
Potency of TRPC6 (Transient receptor potential channel family C6) inhibitors were measured by their inhibition of Calcium influx trigged by OAG (1-Oleoyl-2-acetyl-sn-glycerol, Millipore Sigma, O6754) stimulation on HEK293 cells stably transfected with human TRPC6 using a FLIPR tetra system (BD PBX Calcium Assay Kit; BD Biosciences, San Jose Calif.). Cells were grown in a humidified environment at 37° C. under 5% CO2 using the growth medium with the following selective reagents (Dulbecco's Modified Eagle's Medium (DMEM) high glucose, 10% Fetal Bovine Serum, 1×PSGlu (penicillin-streptomycin glutamine), 1×NEAA (Non-essential amino acid), 1×Na Pyruvate and 200 ug/ml Hygromycin). For general passage, cells were grown to 70-90% confluency; the media was removed, and the cells were gently washed 2 times with calcium and magnesium free PBS (phosphate-buffered saline). Trypsin (3 mL) was applied for 5 minutes at 37° C. The cells were dislodged by rapping flask against base of a hand and 7 mL of growth medium was added to deactivate trypsin and re-suspend cells. The usual splitting schedule was 1:5 every 2-3 days.
Cells were plated the day before the assay, plating cell density is 1.0-1.5×10^4/25 μl/well in poly-D-lysine (PDL) coated 384-well plates using either multichannel pipettes or multidrop. These cells were first incubated with fluorescence dye at room temperature for 90-120 minutes after they were grown on PDL-coated 384-well black plates overnight (Dye loading buffer 10 ml example: 9 mL assay buffer, 1 mL, 10×PBX signal enhancer, 10 μL Calcium indicator). The cells were incubated with a dose of compounds for 25 minutes before being stimulated with TRPC6 agonist OAG. The OAG solution was prepared by adding OAG into assay buffer (Ca ringer solution base: 10 mM HEPES (4-(2-hydroxyethyl)-1-piperazine-ethanesulfonic acid), 4 mM MgCl2, 120 mM NaCl, 5 mM KCl, pH=7.2 @25° C.)+0.1% BSA+2 mM CaCl2) to the concentration of 0.2 mM/2% DMSO, which achieves a final on cell concentration of 50 uM/0.5% DMSO. 12.5 uL OAG mixture was added and the activation of the TRPC6 channel was measured by the change of intracellular Calcium levels on FLIPR terra system.
Data was acquired by measuring the fluorescent peak signal subtracted from the background during the 180 second imaging frame. Each data point is further normalized to 100% of OAG triggered signal vs. buffer. Table 3 provides the IC50 for each compound, which data is obtained by plotting peak signal over the compound dose.

For the compound `N[C@@H]1CN(c2nc3cc(F)ccc3n2Cc2ccc(F)cn2)CC[C@H]1F` (single isomer, unassigned) [Example 1], the IC50 came out at 0.7 nM. The same measure for `N[C@@H]1CN(c2nc3cc(F)cc(F)c3n2Cc2ccc(F)cn2)CCC1(F)F` (single isomer, unassigned) [Example 2]: 2.2 nM; for `N[C@@H]1CN(c2nc3ccc(F)cc3n2Cc2ncc(F)cn2)CC[C@H]1F` (single isomer, unassigned) [Example 3]: 0.2 nM; for `N[C@@H]1CN(c2nc3ccc(F)cc3n2Cc2ccc(F)cn2)CC[C@H]1F` (single isomer, unassigned) [Example 4]: 0.4 nM. The same measure for `N[C@@H]1CN(c2nc3cc(F)ccc3n2Cc2ccc(Cl)cn2)CCC1(F)F` (single isomer, unassigned) [Example 5]: 0.3 nM. With `N[C@@H]1CN(c2nc3ccc(F)cc3n2Cc2ncc(Cl)cn2)CCC1(F)F` (single isomer, unassigned) [Example 6], the IC50 came to 1 nM. Turning to `N[C@@H]1CN(c2nc3ccc(F)cc3n2Cc2ccc(F)cn2)CCC1(F)F` (single isomer, unassigned) [Example 7], the IC50 amounted to 22.9 nM. The same measure for `COc1cnc(Cn2c(N3CC[C@@H](F)[C@H](N)C3)nc3c(F)cc(F)cc32)nc1` (single isomer, unassigned) [Example 9]: 0.5 nM.

`N[C@@H]1CN(c2nc3ccc(F)cc3n2Cc2ccc(Cl)cn2)CCC1(F)F` (single isomer, unassigned) [Example 10]: the IC50 was found to be 2.5 nM. The same measure for `N[C@@H]1CN(c2nc3cc(F)ccc3n2Cc2ncc(F)cn2)CC[C@H]1F` (single isomer, unassigned) [Example 11]: 0.4 nM; for `N[C@@H]1CN(c2nc3ccc(F)cc3n2Cc2ccc(Cl)cn2)CC[C@H]1F` (single isomer, unassigned) [Example 12, (3R.4R)-1-(1-((5-chloro-2-pyridinyl)methyl)-6-fluoro-1H-benzimidazol-2-yl)-4-fluoro-3-piperidinamine]: 1 nM; for `N#Cc1ccc2nc(N3CCC(F)(F)[C@H](N)C3)n(Cc3ccc(Cl)cn3)c2c1` (single isomer, unassigned) [Example 13]: 1.3 nM.

`N[C@@H]1CN(c2nc3c(F)cc(F)cc3n2Cc2ncc(Cl)cn2)CCC1(F)F` (single isomer, unassigned) [Example 14]: the IC50 was 1.2 nM. The same measure for `N#Cc1cc(F)cc2c1nc(N1CC[C@@H](F)[C@H](N)C1)n2Cc1ccc(F)cn1` (single isomer, unassigned) [Example 15]: 1 nM. In the case of `COc1cc(F)c2nc(N3CC[C@@H](F)[C@H](N)C3)n(Cc3ncc(Cl)cn3)c2c1` (single isomer, unassigned) [Example 21] it was 0.4 nM.

As to `Cc1ccc(Cn2c(N3CC[C@@H](F)[C@H](N)C3)nc3cc(F)c(F)cc32)nc1` [Example 8, (3R,4R)-1-(5,6-difluoro-1-((5-methyl-2-pyridinyl)methyl)-1H-benzimidazol-2-yl)-4-fluoro-3-piperidinamine], the IC50 came to 0.1 nM. For `N[C@@H]1CN(c2nc3cc(F)c(F)cc3n2Cc2ccc(Cl)cn2)CCC1(F)F` [Example 16, (3R)-1-(1-((5-chloro-2-pyridinyl)methyl)-5,6-difluoro-1H-benzimidazol-2-yl)-4,4-difluoro-3-piperidinamine], the IC50 was 0.6 nM. Take `N[C@@H]1CN(c2nc3cc(F)c(F)cc3n2Cc2ncc(Cl)cn2)CCC1(F)F` [Example 17, (3R)-1-(1-((5-chloro-2-pyrimidinyl)methyl)-5,6-difluoro-1H-benzimidazol-2-yl)-4,4-difluoro-3-piperidinamine]: the IC50 was found to be 0.6 nM.

Take `N[C@@H]1CN(c2nc3cc(F)c(F)cc3n2Cc2ncc(Cl)cn2)CC[C@H]1F` [Example 18, (3R,4R)-1-(1-((5-chloro-2-pyrimidinyl)methyl)-5,6-difluoro-1H-benzimidazol-2-yl)-4-fluoro-3-piperidinamine]: the IC50 was determined as 1.2 nM. In the case of `COc1cnc(Cn2c(N3CC[C@@H](F)[C@H](N)C3)nc3cc(F)c(F)cc32)nc1` [Example 19, (3R,4R)-1-(5,6-difluoro-1-((5-methoxy-2-pyrimidinyl)methyl)-1H-benzimidazol-2-yl)-4-fluoro-3-piperidinamine] it was 1.2 nM; in that of `N#Cc1cccc(Cn2c(N3CC[C@@H](F)[C@H](N)C3)nc3cc(F)c(F)cc32)n1` [Example 20, 6-((2-((3R,4R)-3-amino-4-fluoro-1-piperidinyl)-5,6-difluoro-1H-benzimidazol-1-yl)methyl)-2-pyridinecarbonitrile], 1.8 nM.
